Data on 11 molecules can be found in US12227511B2, “Bicyclic compounds as kinase modulators, methods and uses thereof” (Agency for Science, Technology and Research, priority 2018, dated 2025).

Where a name gives a salt, the structure may show the parent alone. A value given as a limit tells only on which side of the number the result lay.

Usually GI50 stands for the concentration at which growth is held to half of that of the control.

The test system of series [1] is hepatocellular carcinoma (HCC). The settings on record: clinical; cited from earlier work.
Another series deals with HCCLM3 cells. The experiment in a line: GI50 in HCCLM3 cells, cell viability by MTS assay. Format: cell-based. The settings on record: Homo sapiens, 72 hours incubation, triplicates, read-out: HCCLM3 activity range (GI50). As to the method: To investigate the effects of compounds on hepatocellular carcinoma (HCC) cell viability, HCCLM3 cells (HCC cells with high metastatic potential) were incubated with increasing concentrations of test compounds for 72 hours. Cell viability was evaluated at the end of incubation period by MTS assay. […] All samples were evaluated in triplicates.
As set forth in Table 1 below, GI50 values are defined as follows: GI50≤10 μM (+++); GI50>10 μM and ≤20 μM (++); GI50>20 μM (+).

For series [2], the system named is hepatocellular carcinoma (HCC). Particulars: HCC patients taking Stivarga (Regorafenib); cited from earlier work.
Series [3] relates to hepatocellular carcinoma (HCC). The settings on record: HCC patients, cited from earlier work.

On to `COc1cc2nccc(Oc3ccc(NC(=O)C4(C(=O)Nc5ccc(F)cc5)CC4)cc3)c2cc1OC` [Cabozantinib], for which the “incidence of adverse events (AEs) compared to Regorafenib” value in series [1] is “higher incidence of adverse events”.
Take `COc1cc2nccc(Oc3ccc(NC(=O)C4(C(=O)NC56CC(C(=O)O)(C5)C6)CC4)cc3)c2cc1OC` [Compound 29, 3-(1-((4-((6,7-dimethoxyquinolin-4-yl)oxy)phenyl)carbamoyl)cyclopropane-1-carboxamido)bicyclo[1.1.1]pentane-1-carboxylic acid hydrochloride]: in the series on HCCLM3 cells, the 50% growth inhibitory concentration (GI50) is greater than 20 µM.
In the case of `COCC12CC(NC(=O)C3(C(=O)Nc4ccc(Oc5ccnc6cc(OC)c(OC)cc56)cc4)CC3)(C1)C2` [Compound 30, N-(4-((6,7-dimethoxyquinolin-4-yl)oxy)phenyl)-N-(3-(methoxymethyl)bicyclo[1.1.1]pentan-1-yl)cyclopropane-1,1-dicarboxamide], the concentration for 50% growth inhibition (GI50) with HCCLM3 cells is 10 to 20 µM.
For `COC(=O)C12CC(NC(=O)C3(C(=O)Nc4ccc(Oc5ccnc6cc(OC)c(OC)cc56)cc4)CC3)(C1)C2` [Compound 31, methyl 3-(1-((4-((6,7-dimethoxyquinolin-4-yl)oxy)phenyl)carbamoyl)cyclopropane-1-carboxamido)bicyclo[1.1.1]pentane-1-carboxylate], in the series on HCCLM3 cells, the 50% growth inhibitory concentration (GI50) was no more than 10 µM.
For `COc1cc2nccc(Oc3ccc(NC(=O)C4(C(=O)NC56CC(CO)(C5)C6)CC4)cc3)c2cc1OC` [Compound 32, N-(4-((6,7-dimethoxyquinolin-4-yl)oxy)phenyl)-N-(3-(hydroxymethyl)bicyclo[1.1.1]pentan-1-yl)cyclopropane-1,1-dicarboxamide], the GI50 with HCCLM3 cells was no more than 10 µM.
Same read-out and setting: next, `COc1cc2nccc(Oc3ccc(NC(=O)C4(C(=O)NC56CC(C#N)(C5)C6)CC4)cc3)c2cc1OC` [Compound 33, N-(3-cyanobicyclo[1.1.1]pentan-1-yl)-N-(4-((6,7-dimethoxyquinolin-4-yl)oxy)phenyl)cyclopropane-1,1-dicarboxamide]: 10 to 20 µM.
As for `COc1cc2nccc(Oc3ccc(NC(=O)C45CC(C(=O)NC67CCC(CC6)C7)(C4)C5)cc3)c2cc1OC` [Compound 34, N1-((1s,4s)-bicyclo[2.2.1]heptan-1-yl)-N3-(4-((6,7-dimethoxyquinolin-4 yl)oxy)phenyl)bicyclo[1.1.1]pentane-1,3-dicarboxamide], the GI50 in the series with HCCLM3 cells was greater than 20 µM.
In the case of `COc1cc2nccc(Oc3ccc(NC(=O)C45CC(C(=O)N6CC7CC7C6)(C4)C5)cc3)c2cc1OC` (stereo not drawn) [Compound 35, 3-(3-azabicyclo[3.1.0]hexane-3-carbonyl)-N-(4-((6,7-dimethoxyquinolin-4-yl)oxy)phenyl)bicyclo[1.1.1]pentane-1-carboxamide], the GI50 with HCCLM3 cells is greater than 20 µM.
On to `COc1cc2nccc(Oc3ccc(NC(=O)C45CC(C(=O)NC6CC6)(C4)C5)cc3)c2cc1OC` [Compound 36, N1-cyclopropyl-N3-(4-((6,7-dimethoxyquinolin-4-yl)oxy)phenyl)bicyclo[1.1.1]pentane-1,3-dicarboxamide], for which, in the series on HCCLM3 cells, the GI50 is greater than 20 µM.
Regarding `CNC(=O)c1cc(Oc2ccc(NC(=O)Nc3ccc(Cl)c(C(F)(F)F)c3)c(F)c2)ccn1` [Regorafenib], the median overall survival entry in series [2] is “about 10.6 months”.
For the molecule `CNC(=O)c1cc(Oc2ccc(NC(=O)Nc3ccc(Cl)c(C(F)(F)F)c3)cc2)ccn1` [Sorafenib], the “increase of survival rate compared to a placebo” value in series [3] (Sorafenib vs placebo) is given as 2.8 months. For the same molecule, in series [3] (Sorafenib), the median survival rate result is “about 10.7 months”.
